Reference: patent publication US20230357242A1, “COMPOUND AS AKT KINASE INHIBITOR” (CHIA TAI TIANQING PHARMACEUTICAL GROUP CO., LTD., priority 2020, published 2023)

Key:
[1] = test system: AN3CA human endometrial cancer cells; assay: Pharmacodynamics in subcutaneous xenograft tumor nude mouse model of AN3CA human endometrial cancer cells; assay type: in vivo, BALB/C nude mice; details: for in vivo tumor inhibition effect (in words) / Relative tumor volume (mean ± SD) / Tumor volume (mm^3) (mean ± SD): AN3CA xenograft; for in vivo tumor inhibition effect (in words): 20 mg/kg i.g. qd; for Relative tumor volume (mean ± SD) / Tumor volume (mm^3) (mean ± SD) / Weight change rate (%) (mean ± SD) / TGI (%) / T/C (%): day 14, 20 mg/kg i.g. qd 14 d; for Weight change rate (%) (mean ± SD): body weight; for TGI (%): by tumor weight, ** p < 0.01 vs control; for T/C (%): relative tumor proliferation rate
Experimental: SPF-grade female BALB/C nude mice (from Changzhou Cavens Laboratory Animal Ltd.) were inoculated subcutaneously at the right side armpit with 5×10^6 AN3CA cells (sourec: Nanjing Cobioer Biosciences Co., Ltd.).
The day of grouping was determined as do, and the intragastric administration was started on the grouping day, and the administration volume was 10 mL/kg. The solvent was: D5W (5% glucose solution). The tumor volume was measured 2-3 times a week, meanwhile, the mice were weighed and the data were recorded; the general behavior of the mice was observed and recorded every day. After the experiment was completed, the tumors were removed, weighed and photographed.
Calculation formula for tumor volume: Tumor volume (mm^3)=½×(a×b^2) (where a represents long diameter and b represents short diameter).
Relative tumor proliferation rate (T/C %) refers to the percentage of the relative tumor volume of the treatment and control groups at a certain time point. The calculation formula is as follows: T/C %=TRTV/CRTV×100% (TRTv: mean relative tumor volume (RTV) for treatment group; CRTV: mean RTV for vehicle control group; RTV=TVt/TV0, where TV0 is the tumor volume at grouping, TVt is the tumor volume after treatment).
The calculation formula for weight change rate (WCR) (%) is: WCR=(Wtt−Wt0)/Wt0×100%, where Wt0 is the body weight of the animal at grouping (i.e., d0), Wtt is the body weight of the animal at each measurement.
All experimental results are expressed as mean±SD (mean±standard deviation). The relative tumor volume of the treatment group was compared with that of the control group for any significant difference by T tests, wherein p<0.01 indicates a very significant difference.

[2] = test system: LNcap cells; assay: Inhibitory effect on proliferation of LNcap cells (CCK-8, 72 h); assay type: cell-based; details: Homo sapiens, LNcap cells, CCK-8, read-out: LNcap cells IC50
Experimental: A dish of LNcap cells (human prostate cancer cells with PTEN deficiency) growing at log phase and in good conditions were taken and digested for 3 min by using 1 mL of pancreatin, then the mixture was added with 4 mL of complete culture medium to terminate digestion, and the cells were added to a centrifuge tube. 20 μL of cells were taken and counted, the required number of cells (mL) was pipetted and centrifuged at 1200 rpm for 5 min, the supernatant was discarded, and an appropriate amount of plating medium (RPMI medium+5% FBS+1% sodium pyruvate+1% glutamine) was added to adjust the cell density to 3×10^4 cells/mL. The cells were seeded on a 96-well plate at 100 μL/well using a multi-channel pipette and cultured in a cell incubator at 37° C., 5% CO2 and saturated humidity. After incubation overnight, compounds were loaded using a nanoliter pipettor, 2 duplicate wells were set for each concentration, and cells without compound were used as negative controls. After 72 h, CCK-8 was added at 10 μL/well for incubation for 4 h, then absorbance was measured at 450 nm with an Envision plate reader, and inhibition rate was calculated. Inhibition rate (%)=(mean value of negative control group−mean value of experimental group)/(mean value of negative control group−mean value of blank group)×100%. A dose-response curve was fitted by four-parameter analysis, with the logarithm of compound concentration as abscissa and inhibition rate as ordinate, so that IC50 was calculated.

| IC50 [2] [nM] | SMILES | in vivo tumor inhibition effect (in words) [1] | Relative tumor volume (mean ± SD) [1] | Tumor volume (mm^3) (mean ± SD) [1] | Weight change rate (%) (mean ± SD) [1] | TGI (%) [1] [%**] | T/C (%) [1] [%] |
| --- | --- | --- | --- | --- | --- | --- | --- |
| 4.8 | Nc1ncccc1-c1nc2ccc(-c3cccc(N4CCC(N5CCCC5=O)CC4)c3F)nc2n1-c1ccc(C2(N)CCC2)cc1 [Compound 30] | strong in vivo tumor inhibition effects | 9.7 ± 2.2 | 1242 ± 354 | 2.3 ± 3.5 | 58.4 | 40.9 |
| 3 | CC(=O)N1CC2(C1)CN(c1cccc(-c3ccc4nc(-c5cccnc5N)n(-c5ccc(C6(N)CCC6)cc5)c4n3)c1F)C2 [Compound 28] | strong in vivo tumor inhibition effects | 10.5 ± 3.4 | 1267 ± 249 | 4.9 ± 2.7 | 53.2 | 44.3 |
